What was measured:
human fibroblasts [1] = assay: Focal adhesion formation and spreading in human fibroblasts; assay type: cell-based; conditions: PF573228 treatment
Description: To substantiate the importance of these findings in human tissues, we examined FAK pathways in vitro in human fibroblasts. Following the application of strain, FAK was activated within five minutes and sustained during the static strain period (FIG. 3a-b). ERK was phosphorylated after ten minutes and its activation was critically dependent on FAK, thus recapitulating the FAK-ERK mechanotransduction axis observed in vivo. Small molecule inhibition of FAK (PF573228) was used to investigate mechanically-regulated fibroblast function during wound repair. […] Additionally, cell motility (FIG. 3c) and contraction/α-SMA expression (FIG. 3d-e) were all decreased with FAK inhibition.
Fibroblast harvest. We isolated primary dermal mouse fibroblasts after overnight incubation in trypsin (Gibco/Invitrogen, Carlsbad, Calif.) followed by 1 mg mL^−1 Liberase TL (Roche, Indianapolis, Ind.). We obtained human fibroblasts from fresh tissue specimens following IRB-approved protocols at Oregon Health and Sciences University. We incubated specimens overnight in 5 mg mL^−1 dispase (Roche) followed by 0.5 mg mL^−1 collagenase type I (Roche) and 0.2 mg mL^−1 trypsin. […]
Microscopy and immunohistochemistry. […] We processed images for publication using Adobe Photoshop CS3 (Adobe Systems Incorporated, San Jose, Calif.) and two blinded investigators performed image quantification using ImageJ (NIH, Bethesda, Md.).

human fibroblasts [2] = assay: Scratch migration assay (fibroblast motility); assay type: cell-based; conditions: FIG. 3c
Protocol: (§1) Fibroblast harvest. We isolated primary dermal mouse fibroblasts after overnight incubation in trypsin (Gibco/Invitrogen, Carlsbad, Calif.) followed by 1 mg mL^−1 Liberase TL (Roche, Indianapolis, Ind.). We obtained human fibroblasts from fresh tissue specimens following IRB-approved protocols at Oregon Health and Sciences University. We incubated specimens overnight in 5 mg mL^−1 dispase (Roche) followed by 0.5 mg mL^−1 collagenase type I (Roche) and 0.2 mg mL^−1 trypsin. We used human cells from passages four to eight.
In vitro wound healing. We assessed fibroblast motility using a scratch migration assay, Aarabi, et al. FASEB J 21, 3250-3261 (2007).

human fibroblasts [3] = assay: Fibroblast-populated 3D-collagen lattices (contraction, α-SMA expression); assay type: cell-based; conditions: FIG. 3d-e
Protocol: as §1
Fibroblast-populated collagen lattices. We performed fibroblast contraction studies as previously published, Ehrlich, Methods Mol Med 78, 277-291 (2003).
Microscopy and immunohistochemistry. We incubated paraformaldehyde-fixed cells with primary antibody (pFAK-Y397 or FAK 1:200, BD Biosciences, San Jose, Calif.) followed by AlexaFluor488-conjugated secondary antibody (Molecular Probes/Invitrogen). We performed cytoskeletal staining with phalloidin-AF488 or Cy3-conjugated antibody against α-SMA (Sigma-Aldrich). We performed H&E, picrosirius red and trichrome staining (Sigma-Aldrich) on paraffin-embedded sections. […] We processed images for publication using Adobe Photoshop CS3 (Adobe Systems Incorporated, San Jose, Calif.) and two blinded investigators performed image quantification using ImageJ (NIH, Bethesda, Md.).

[4] = system: cutaneous wounds in the HTS model; assay: Murine HTS model with daily intradermal injections; assay type: in vivo
Protocol: Murine HTS model. We used a murine HTS model as previously published by our group, Aarabi, et al., supra.
Microscopy and immunohistochemistry. We incubated paraformaldehyde-fixed cells with primary antibody (pFAK-Y397 or FAK 1:200, BD Biosciences, San Jose, Calif.) followed by AlexaFluor488-conjugated secondary antibody (Molecular Probes/Invitrogen). We performed cytoskeletal staining with phalloidin-AF488 or Cy3-conjugated antibody against α-SMA (Sigma-Aldrich). We performed H&E, picrosirius red and trichrome staining (Sigma-Aldrich) on paraffin-embedded sections. We used primary antibodies against FAK, MCP-1, F4/80, Ki67, and α-SMA. Immunostaining was developed with VIP, NovaRed or diaminobenzidine (Vector Laboratories, Burlingame, Calif.), or secondary fluorescent antibodies AF488 or AF594. We performed apoptotic staining using the In Situ Cell Death Detection Kit (Roche). We purchased all antibodies from Abcam Inc. (Cambridge, Mass.) unless otherwise noted. We processed images for publication using Adobe Photoshop CS3 (Adobe Systems Incorporated, San Jose, Calif.) and two blinded investigators performed image quantification using ImageJ (NIH, Bethesda, Md.).
Gene expression. We performed qPCR as previously published. We used Taqman Gene Expression Assays (Applied Biosystems, Foster City, Calif.) for in vitro qPCR.
Immunoblotting. We performed immunoblotting as previously described. We used the following antibodies: FAK (BD Biosciences), p-FAK Y397, p-FAK S732, p-ERK T202/Y204 and ERK, p-Akt S473 and Akt (Cell Signaling Technology, Inc., Danvers, Mass.), p-p38 Y182 and p38, p-JNK T183/Y185 and JNK, MCP-1 and β-actin. We obtained all antibodies from Abcam Inc. unless otherwise noted.
Intradermal injections. We administered intradermal injections (300 μL) of DMSO, 15 μM PF573228, or 150 μM PF573228 to unwounded murine skin or unloaded incisions. For HTS model experiments, we injected 15 μM PF573228 or recombinant mouse Mcp-1 (1 μg mL^−1, R&D Systems Inc.) daily between days 4 and 14 post-injury.

| Molecule | formation of focal adhesions (human fibroblasts [1]) | spreading in human fibroblasts (human fibroblasts [1]) | cell motility (human fibroblasts [2]) | contraction/α-SMA expression (human fibroblasts [3]) | scar formation in vivo ([4]; 15 μM PF573228 intradermal daily, days 4 to 14 post-injury, FIG. 4a) | MCP-1-associated pathways ([4]; HTS model scars) | mechanical activation of ERK ([4]; HTS model scars) | scar matrix density ([4]; post-injury day ten scars) | attenuation of epithelial proliferation ([4]; post-injury day ten scars, p<0.001) [%] | attenuation of epithelial thickness ([4]; post-injury day ten scars, p=0.004) [%] | attenuation of dermal proliferation ([4]; post-injury day ten scars, p=0.01) [%] | fibrotic phenotype in FAK-deficient wounds ([4]; FAK KO mice, intradermal Mcp-1 1 μg mL^−1 daily, FIG. 2c-f) |
| --- | --- | --- | --- | --- | --- | --- | --- | --- | --- | --- | --- | --- |
| CS(=O)(=O)c1cccc(CNc2nc(Nc3ccc4c(c3)CCC(=O)N4)ncc2C(F)(F)F)c1 [PF573228] | effectively inhibited | impaired | decreased | decreased | significantly reduced | blocked | significantly decreased | attenuated | 57 | 35 | 28 | – |
| Mcp-1: recombinant mouse Mcp-1 (monocyte chemoattractant protein-1/CCL2), R&D Systems Inc. | – | – | – | – | – | – | – | – | – | – | – | restored the fibrotic phenotype |
